In the supplement of paper PMC11208160:

assay: recombinant UMI read abundance after kanamycin selection (control-corrected) (log10(CPM+1)); higher = more efficient recombination; extreme values may be limits of the assay; sequences stand for … in AGTGCAGAGAAAATCGGCCAGTTTTCTCTGCCTGCAGTCCGCATGCCGTGGGACCCCTTGGGTTCTAACCTGTTGCCTAGATTTATGCAGCGGACTGCCTTTCTCCCAAAGTGATAAACCGG…AGGTTGGTTTCACT; site = the 11-nt donor
Description: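 Pooled E. coli donor-specificity screen for the IS621 bridge recombinase. Each library member carries a reprogrammed 11-nt donor and a full-length LE bridge RNA expressed in cis from the natural promoter, with a paired donor-binding loop (8-nt LDG + 4-nt RDG) and a target-binding loop fixed to T5. It is co-electroporated with a T5 target plasmid; recombinase is induced with 0.07 mM IPTG and recombinants are selected on kanamycin. UMIs are counted as CPM, averaged over two biological replicates and corrected by the unselected control. Molecule = full bridge RNA written as DNA, built from the T5 scaffold: LDG = donor specificity nt 1-8, RDG = reverse complement of nt 8-11.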
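Note: IS621 bridge recombinase in Escherichia coli cells against a fixed T5 target plasmid.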

Row | Sequence | recombinant UMI read abundance (log10)
1 | AAGCACGCATGGACCGGTTTTCCCGGTAATCCGTATTTGGG (site AAGCACACTCC) | 0.0106
2 | AAGCACGCATGGACCGGTTTTCCCGGTAATCCGTATTTGGG (site AAGCACCCTCC) | 0
3 | AAGCACGCATGGACCGGTTTTCCCGGTAATCCGTATTTGGG (site AAGCACGCTAC) | 0.0125
4 | AAGCACGCATGGACCGGTTTTCCCGGTAATCCGTATTTGGG (site AAGCACGCTCA) | 0.0347
5 | AAGCACGCATGGACCGGTTTTCCCGGTAATCCGTATTTGGG (site AAGCACGCTCC) | 0.133
6 | AAGCACGCATGGACCGGTTTTCCCGGTAATCCGTATTTGGG (site AAGCACGCTCG) | 0.00834
7 | AAGCACGCATGGACCGGTTTTCCCGGTAATCCGTATTTGGG (site AAGCACGCTCT) | 0.265
8 | AAGCACGCATGGACCGGTTTTCCCGGTAATCCGTATTTGGG (site AAGCACGCTGC) | 0
9 | AAGCACGCATGGACCGGTTTTCCCGGTAATCCGTATTTGGG (site AAGCACGCTTC) | 0.012
10 | AAGCACGCATGGACCGGTTTTCCCGGTAATCCGTATTTGGG (site AAGCACTCTCC) | 0.0617
11 | AAGCACGCATGGACCGGTTTTCCCGGTAATCCGTATTTGGG (site AAGCAGGCTCC) | 0.0132
12 | AAGCACGCATGGACCGGTTTTCCCGGTAATCCGTATTTGGG (site AAGCATGCTCC) | 0.0182
13 | AAGCACGCATGGACCGGTTTTCCCGGTAATCCGTATTTGGG (site AAGCCCGCTCC) | 0.0231
14 | AAGCACGCATGGACCGGTTTTCCCGGTAATCCGTATTTGGG (site AAGCGCGCTCC) | 0.0213
15 | AAGCACGCATGGACCGGTTTTCCCGGTAATCCGTATTTGGG (site AAGCTCGCTCC) | 0.0309
16 | AAGCACGCATGGACCGGTTTTCCCGGTAATCCGTATTTGGG (site AAGGACGCTCC) | 0.00889
17 | AAGCACGCATGGACCGGTTTTCCCGGTAATCCGTATTTGGG (site AAGTACGCTCC) | 0.0168
18 | AAGCACGCATGGACCGGTTTTCCCGGTAATCCGTATTTGGG (site AATCACGCTCC) | 0.0177
19 | AAGCACGCATGGACCGGTTTTCCCGGTAATCCGTATTTGGG (site ACGCACGCTCC) | 0.0214

Row | Sequence | recombinant UMI read abundance (log10)
20 | AAGCACGCATGGACCGGTTTTCCCGGTAATCCGTATTTGGG (site AGGCACGCTCC) | 0.0204
21 | AAGCACGCATGGACCGGTTTTCCCGGTAATCCGTATTTGGG (site ATGCACGCTCC) | 0.0113
22 | AAGCACGCATGGACCGGTTTTCCCGGTAATCCGTATTTGGG (site CAGCACGCTCC) | 0.00873
23 | AAGCACGCATGGACCGGTTTTCCCGGTAATCCGTATTTGGG (site GAGCACGCTCC) | 0.0379
24 | AAGCACGCATGGACCGGTTTTCCCGGTAATCCGTATTTGGG (site TAGCACGCTCC) | 0.0044
25 | AAGCGGTCATGGACCGGTTTTCCCGGTAATCCGTATTTGTT (site AAGCGGTCTAA) | 1.4
26 | AAGGATACATGGACCGGTTTTCCCGGTAATCCGTATTTGCC (site AAGGATACTGG) | 2.67
27 | AAGGCCCCATGGACCGGTTTTCCCGGTAATCCGTATTTGGT (site AAGGCCCCTAC) | 0.395
28 | AAGGGATCATGGACCGGTTTTCCCGGTAATCCGTATTTGTT (site AAGGGATCTAA) | 2.95
29 | AAGGGCTCATGGACCGGTTTTCCCGGTAATCCGTATTTGGC (site AAGGGCTCTGC) | 3.63
30 | AAGTAGACATGGACCGGTTTTCCCGGTAATCCGTATTTGCA (site AAGTAGACTTG) | 2.72
31 | AAGTAGACATGGACCGGTTTTCCCGGTAATCCGTATTTGCA (site AGGAAGACTTG) | 0.52
32 | AAGTCGACATGGACCGGTTTTCCCGGTAATCCGTATTTGAA (site AAGTCGACTTT) | 0.435
33 | AAGTCGCCATGGACCGGTTTTCCCGGTAATCCGTATTTGGT (site AAGTCGCCTAC) | 0.0178
34 | AAGTGTGCATGGACCGGTTTTCCCGGTAATCCGTATTTGTC (site AAGTGTGCTGA) | 2.99
35 | AAGTTGTCATGGACCGGTTTTCCCGGTAATCCGTATTTGTC (site AAGTTGTCTGA) | 2.09
36 | AATAAAGCATGGACCGGTTTTCCCGGTAATCCGTATTTGGC (site AATAAAGCTGC) | 1.32
37 | AATAAGACATGGACCGGTTTTCCCGGTAATCCGTATTTGCA (site AATAAGACTTG) | 2.17
38 | AATAAGACATGGACCGGTTTTCCCGGTAATCCGTATTTGCA (site AGGAAGACTTG) | 1.4

Row | Sequence | recombinant UMI read abundance (log10)
39 | AATACTTCATGGACCGGTTTTCCCGGTAATCCGTATTTGAG (site AATACTTCTCT) | 1.6
40 | AATAGTACATGGACCGGTTTTCCCGGTAATCCGTATTTGTC (site AATAGTACTGA) | 1.89
41 | AATAGTGCATGGACCGGTTTTCCCGGTAATCCGTATTTGCC (site AATAGTGCTGG) | 1.5
42 | AATATGGCATGGACCGGTTTTCCCGGTAATCCGTATTTGCG (site AATATGGCTCG) | 1.22
43 | AATCAATCATGGACCGGTTTTCCCGGTAATCCGTATTTGCC (site AATCAATCTGG) | 1.98
44 | AATCACGCATGGACCGGTTTTCCCGGTAATCCGTATTTGGG (site AAACACGCTCC) | 0.0181
45 | AATCACGCATGGACCGGTTTTCCCGGTAATCCGTATTTGGG (site AACCACGCTCC) | 0.0334
46 | AATCACGCATGGACCGGTTTTCCCGGTAATCCGTATTTGGG (site AAGCACGCTCC) | 0.0135
47 | AATCACGCATGGACCGGTTTTCCCGGTAATCCGTATTTGGG (site AATCACGCTCC) | 0.0109
48 | AATCCATCATGGACCGGTTTTCCCGGTAATCCGTATTTGAT (site AATCCATCTAT) | 0.288
49 | AATCGAACATGGACCGGTTTTCCCGGTAATCCGTATTTGTC (site AATCGAACTGA) | 0.559
50 | AATCGGACATGGACCGGTTTTCCCGGTAATCCGTATTTGAT (site AATCGGACTAT) | 1.01
51 | AATCTCTCATGGACCGGTTTTCCCGGTAATCCGTATTTGGC (site AATCTCTCTGC) | 2.62
52 | AATCTTGCATGGACCGGTTTTCCCGGTAATCCGTATTTGTC (site AATCTTGCTGA) | 1.07
53 | AATGACCCATGGACCGGTTTTCCCGGTAATCCGTATTTGTT (site AATGACCCTAA) | 0.0112
54 | AATGACTCATGGACCGGTTTTCCCGGTAATCCGTATTTGAG (site AATGACTCTCT) | 2.08
55 | AATGACTCATGGACCGGTTTTCCCGGTAATCCGTATTTGGT (site AATGACTCTAC) | 2.1
56 | AATGCAACATGGACCGGTTTTCCCGGTAATCCGTATTTGTG (site AATGCAACTCA) | 0.302
57 | AATGCACCATGGACCGGTTTTCCCGGTAATCCGTATTTGTG (site AATGCACCTCA) | 0.0217
